26 compounds from patent US20250368628A1, “METHODS AND COMPOUNDS FOR MODULATING INHERITED GENETIC DISEASES” (Design Therapeutics, Inc., priority 2022, published 2025) can be followed below.

Bounds are passed on as bounds.

For test [1], the system named is F35T cells. As to the kind of experiment: Foci reduction in FECD (CAG10-Cy3 FISH, foci per nucleus). Format: cell-based. The settings on record: F35T cells, 48 h treatment, foci per nucleus; read-out: FECD EC50, 48 h. The essentials: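 F35T cells, 5000 per well, were treated for 48 h at 37 °C, 5% CO2 in an 8-point dose response. Cells were then fixed in 4% PFA, permeabilized in 70% ethanol and hybridized overnight at 37 °C with a CAG10-Cy3 probe in 30% formamide/2×SSC. After DAPI staining, imaging gave foci per nucleus.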

Test [2] relates to Myotonic Dystrophy 1 affected patient fibroblasts (Coriel GM04602; 1600 CTG repeats). The test can be described thus: DM1 foci reduction assay (EC50 assay; CAG10-Cy3 FISH, foci per nucleus). Format: cell-based. The conditions noted are these: Homo sapiens, Fibroblast; DM1 patient fibroblasts, 48 h treatment, foci per nucleus; read-out: DM1 EC50, 48 h. The method in brief: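 GM04602 DM1 patient fibroblasts (1600 CTG repeats) seeded 24 h, then treated 48 h at 37 °C with an 8-point 1:3 dose series from 3 μM. Cells PFA-fixed, ethanol-permeabilized and hybridized overnight with 5 nM CAG10-Cy3 probe, DAPI counterstained. Imaged at 20×, 4 fields per well, as average foci per nucleus.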

Regarding `CC(C)CCNC(=O)CCNC(=O)c1nc(NC(=O)c2cc(NC(=O)CCNC(=O)c3nc(NC(=O)CCCNC(=O)c4cc(NC(=O)c5nc(NC(=O)CCNC(=O)c6cc(NC(=O)c7nccn7C)cn6C)cn5C)cn4C)cn3C)cn2C)cn1C` [Compound B-179], the values for the EC50 in test [1] and in test [2] were less than 100 nM and 100 to 500 nM, respectively.

With `CC(C)CCCN1CCC(C#CC#CC2CCN(CCCCCNC(=O)CCNC(=O)c3nc(NC(=O)c4cc(NC(=O)CCNC(=O)c5nc(NC(=O)CCCNC(=O)c6cc(NC(=O)c7nc(NC(=O)CCNC(=O)c8cc(NC(=O)c9nccn9C)cn8C)cn7C)cn6C)cn5C)cn4C)cn3C)CC2)CC1` [Compound B-185], the EC50 in test [1] is 100 to 500 nM; in test [2], more than 1000 nM.

Turning to `Cn1cc(NC(=O)c2nc(NC(=O)CCNC(=O)c3cc(NC(=O)c4nccn4C)cn3C)cn2C)cc1C(=O)NCCCC(=O)Nc1cn(C)c(C(=O)NCCC(=O)Nc2cc(C(=O)Nc3cn(C)c(C(=O)NCCC(=O)N4CCC(C5CN(C(=O)OC(C)(C)C)C5)CC4)n3)n(C)c2)n1` [Compound B-193], the EC50 in test [1] and in test [2] was less than 100 nM each time.

Turning to `Cn1cc(NC(=O)c2nc(NC(=O)CCNC(=O)c3cc(NC(=O)c4nccn4C)cn3C)cn2C)cc1C(=O)NCCCC(=O)Nc1cn(C)c(C(=O)NCCC(=O)Nc2cc(C(=O)Nc3cn(C)c(C(=O)NCCc4cnc(CNC(=O)OCc5ccccc5)[nH]4)n3)n(C)c2)n1` [Compound B-202], the concentration for a half-maximal effect (EC50) in test [1] is less than 100 nM; in test [2] it was 100 to 500 nM.

In the case of `Cn1cc(NC(=O)c2nc(NC(=O)CCNC(=O)c3cc(NC(=O)c4nccn4C)cn3C)cn2C)cc1C(=O)NCCCC(=O)Nc1cn(C)c(C(=O)NCCC(=O)Nc2cc(C(=O)Nc3cn(C)c(C(=O)NCCCCN=[N+]=[N-])n3)n(C)c2)n1` [Compound B-203], the EC50 in test [1] and in test [2] was less than 100 nM in each case.

Turning to `Cn1cc(NC(=O)c2nc(NC(=O)CCNC(=O)c3cc(NC(=O)c4nccn4C)cn3C)cn2C)cc1C(=O)NCCCC(=O)Nc1cn(C)c(C(=O)NCCC(=O)Nc2cc(C(=O)Nc3cn(C)c(C(=O)NCCCN=C(N)N)n3)n(C)c2)n1` [Compound B-205], the EC50 in test [1] and in test [2] was less than 100 nM in each case.

Take `CN(C)C(=NCCCNC(=O)c1nc(NC(=O)c2cc(NC(=O)CCNC(=O)c3nc(NC(=O)CCCNC(=O)c4cc(NC(=O)c5nc(NC(=O)CCNC(=O)c6cc(NC(=O)c7nccn7C)cn6C)cn5C)cn4C)cn3C)cn2C)cn1C)N(C)C` [Compound B-206]: the EC50 in test [1] and in test [2] was 100 to 500 nM each time.

For `Cn1cc(NC(=O)c2nc(NC(=O)CCNC(=O)c3cc(NC(=O)c4nccn4C)cn3C)cn2C)cc1C(=O)NCCCC(=O)Nc1cn(C)c(C(=O)NCCC(=O)Nc2cc(C(=O)Nc3cn(C)c(C(=O)NCCCN4CCNCC4)n3)n(C)c2)n1` [Compound B-207], the concentration for a half-maximal effect (EC50) in test [1] was more than 1000 nM; in test [2], 100 to 500 nM.

In the case of `Cn1cc(NC(=O)c2nc(NC(=O)CCNC(=O)c3cc(NC(=O)c4nccn4C)cn3C)cn2C)cc1C(=O)NCCCC(=O)Nc1cn(C)c(C(=O)NCCC(=O)Nc2cc(C(=O)Nc3cn(C)c(C(=O)NCCCN4CCCCC4)n3)n(C)c2)n1` [Compound B-208], the EC50 in test [1] and in test [2] was 100 to 500 nM in each case.

For the compound `CCCNC(=O)c1cc(NC(=O)CCNC(=O)c2nc(NC(=O)CCCNC(=O)c3cc(NC(=O)c4nc(NC(=O)CCNC(=O)c5cc(NC(=O)c6nccn6C)cn5C)cn4C)cn3C)cn2C)cn1C` [Compound B-209], the half-maximal effective concentration (EC50) in test [1] and in test [2] was more than 1000 nM each time.

With `Cn1cc(NC(=O)c2nc(NC(=O)CCNC(=O)c3cc(NC(=O)c4nccn4C)cn3C)cn2C)cc1C(=O)NCCCC(=O)Nc1cn(C)c(C(=O)NCCC(=O)Nc2cc(C(=O)Nc3cn(C)c(C(=O)NCCC(=O)N4CCC(C#CC#CC5CCN(C(=O)c6cccc(C(=O)O)c6)CC5)CC4)n3)n(C)c2)n1` [Compound B-224], the EC50 in test [1] is 500 to 1000 nM; in test [2], more than 1000 nM.

Regarding `COCCOCCOCCOCCN(CCCCCn1cc(NC(=O)c2nc(NC(=O)CCNC(=O)c3cc(NC(=O)c4nccn4C)cn3C)cn2C)cc1C(=O)NCCCC(=O)Nc1cn(C)c(C(=O)NCCC(=O)Nc2cc(C(=O)Nc3cn(C)c(C(=O)NCCC(=O)NCCOCCOCCOCCN4CCC(C#CC#CC5CCN(C(=O)OC(C)(C)C)CC5)CC4)n3)n(C)c2)n1)CCOCCOCCOCCOC` [Compound B-226], the EC50 in test [1] and in test [2] was 100 to 500 nM in each case.

`COCCOCCOCCOCCN(CCCCCn1cc(NC(=O)c2nc(NC(=O)CCNC(=O)c3cc(NC(=O)c4nccn4C)cn3C)cn2C)cc1C(=O)NCCCC(=O)Nc1cn(C)c(C(=O)NCCC(=O)Nc2cc(C(=O)Nc3cn(C)c(C(=O)NCCC(=O)NCCOCCOCCOCCN4CCC(C#CC#CC5CCNCC5)CC4)n3)n(C)c2)n1)CCOCCOCCOCCOC` [Compound B-227]: the concentration for a half-maximal effect (EC50) in test [1] and in test [2] was more than 1000 nM each time.

Consider `COCCOCCOCCOCCN(CCOCCOCCOCCOC)C(=O)CCCCn1cc(NC(=O)c2nc(NC(=O)CCNC(=O)c3cc(NC(=O)c4nccn4C)cn3C)cn2C)cc1C(=O)NCCCC(=O)Nc1cn(C)c(C(=O)NCCC(=O)Nc2cc(C(=O)Nc3cn(C)c(C(=O)NCCC(=O)NCCOCCOCCOCCN4CCC(C#CC#CC5CCN(C(=O)OC(C)(C)C)CC5)CC4)n3)n(C)c2)n1` [Compound B-228], for which the concentration giving a half-maximal response (EC50) in test [1] and in test [2] was 100 to 500 nM throughout.

In the case of `COCCOCCOCCOCCN(CCOCCOCCOCCOC)C(=O)CCCCn1cc(NC(=O)c2nc(NC(=O)CCNC(=O)c3cc(NC(=O)c4nccn4C)cn3C)cn2C)cc1C(=O)NCCCC(=O)Nc1cn(C)c(C(=O)NCCC(=O)Nc2cc(C(=O)Nc3cn(C)c(C(=O)NCCC(=O)NCCOCCOCCOCCN4CCC(C#CC#CC5CCNCC5)CC4)n3)n(C)c2)n1` [Compound B-229], the EC50 in test [1] and in test [2] was more than 1000 nM in each case.

Consider `CCCCCNC(=O)c1nc(NC(=O)c2cc(NC(=O)CCNC(=O)c3nc(NC(=O)CCCNC(=O)c4cc(NC(=O)c5nc(NC(=O)CCNC(=O)c6cc(NC(=O)c7nccn7C)cn6C)cn5C)cn4CCCCCCN=[N+]=[N-])cn3C)cn2C)cn1C` [Compound B-232], for which the EC50 in test [1] and in test [2] was less than 100 nM throughout.

With `CN(CCCNC(=O)c1cccc(C(=O)O)c1)CCCNC(=O)c1nc(NC(=O)c2cc(NC(=O)CCNC(=O)c3nc(NC(=O)CCCNC(=O)c4cc(NC(=O)c5nc(NC(=O)CCNC(=O)c6cc(NC(=O)c7nccn7C)cn6C)cn5C)cn4CCCCCCN=[N+]=[N-])cn3C)cn2C)cn1C` [Compound B-233], the EC50 in test [1] and in test [2] was 100 to 500 nM in each case.

In the case of `CCCNC(=O)c1nc(NC(=O)c2cc(NC(=O)CCNC(=O)c3nc(NC(=O)CCCNC(=O)c4cc(NC(=O)c5nc(NC(=O)CCNC(=O)c6cc(NC(=O)c7nccn7C)cn6C)cn5C)cn4CCCCCCN)cn3C)cn2C)cn1C` [Compound B-234], the EC50 in test [1] was 100 to 500 nM; in test [2], 500 to 1000 nM.

In the case of `CCCNC(=O)c1nc(NC(=O)c2cc(NC(=O)CCNC(=O)c3nc(NC(=O)CCCNC(=O)c4cc(NC(=O)c5nc(NC(=O)CCNC(=O)c6cc(NC(=O)c7nccn7C)cn6C)cn5C)cn4CCCCCCNC(=O)CCOCCOCCOCCOCCOCCOC)cn3C)cn2C)cn1C` [Compound B-235], the EC50 in test [1] and in test [2] was more than 1000 nM each time.

Turning to `CCCCCNC(=O)c1nc(NC(=O)c2cc(NC(=O)CCNC(=O)c3nc(NC(=O)CCCNC(=O)c4cc(NC(=O)c5nc(NC(=O)CCNC(=O)c6cc(NC(=O)c7nccn7C)cn6C)cn5C)cn4CCCCCCNC(=O)CCOCCOCCOCCOCCOCCOC)cn3C)cn2C)cn1C` [Compound B-236], the EC50 in test [1] and in test [2] was 100 to 500 nM throughout.

Take `COCCOCCOCCOCCOCCOCCC(=O)NCCCCCCn1cc(NC(=O)c2nc(NC(=O)CCNC(=O)c3cc(NC(=O)c4nccn4C)cn3C)cn2C)cc1C(=O)NCCCC(=O)Nc1cn(C)c(C(=O)NCCC(=O)Nc2cc(C(=O)Nc3cn(C)c(C(=O)NCCCN(C)CCCNC(=O)c4cccc(C(=O)O)c4)n3)n(C)c2)n1` [Compound B-237]: the half-maximal effective concentration (EC50) lay within 100 to 500 nM in test [1] and 500 to 1000 nM in test [2].

Regarding `COCCOCCOCCOCCOCCOCCC(=O)NCCCCCCn1cc(NC(=O)c2nc(NC(=O)CCNC(=O)c3cc(NC(=O)c4nccn4C)cn3C)cn2C)cc1C(=O)NCCCC(=O)Nc1cn(C)c(C(=O)NCCC(=O)Nc2cc(C(=O)Nc3cn(C)c(C(=O)NCCC(=O)N4CCC(C#CC#CC5CCN(C(C)=O)CC5)CC4)n3)n(C)c2)n1` [Compound B-239], the EC50 in test [1] and in test [2] was 100 to 500 nM each time.

On to `COCCOCCOCCOCCOCCOCCC(=O)NCCCCCCn1cc(NC(=O)c2nc(NC(=O)CCNC(=O)c3cc(NC(=O)c4nccn4C)cn3C)cn2C)cc1C(=O)NCCCC(=O)Nc1cn(C)c(C(=O)NCCC(=O)Nc2cc(C(=O)Nc3cn(C)c(C(=O)NCCC(=O)N4CCC(C#CC#CC5CCNCC5)CC4)n3)n(C)c2)n1` [Compound B-240], for which the results for the EC50 in test [1] and in test [2] were less than 100 nM and 100 to 500 nM, respectively.

Consider `COCCOCCOCCOCCN(CCCNC(=O)CCNC(=O)c1nc(NC(=O)c2cc(NC(=O)CCNC(=O)c3nc(NC(=O)CCCNC(=O)c4cc(NC(=O)c5nc(NC(=O)CCNC(=O)c6cc(NC(=O)c7nccn7C)cn6C)cn5C)cn4C)cn3C)cn2C)cn1C)CCOCCOCCOCCOC` [Compound B-241], for which the 50% effective concentration (EC50) in test [1] and in test [2] was 100 to 500 nM each time.

On to `Cn1cc(NC(=O)c2nc(NC(=O)CCNC(=O)c3cc(NC(=O)c4nccn4C)cn3C)cn2C)cc1C(=O)NCCCC(=O)Nc1cn(C)c(C(=O)NCCC(=O)Nc2cc(C(=O)Nc3cn(C)c(C(=O)NCC#Cc4ccccc4)n3)n(C)c2)n1` [Compound B-245], for which the EC50 in test [1] and in test [2] was less than 100 nM throughout.

For the compound `Cn1cc(NC(=O)c2nc(NC(=O)CCNC(=O)c3cc(NC(=O)c4nccn4C)cn3C)cn2C)cc1C(=O)NCCCC(=O)Nc1cn(C)c(C(=O)NCCC(=O)Nc2cc(C(=O)Nc3cn(C)c(C(=O)NCCCNCC#Cc4ccccc4)n3)n(C)c2)n1` [Compound B-247], the EC50 in test [1] and in test [2] was less than 100 nM each time.
